The record followed here is patent US20110256241A1, “METHODS AND COMPOSITIONS FOR THE TREATMENT OF CANCER” (TRASLATIONAL CANCER DRUGS PHARMA, S.L., priority 2008, published 2011).

Experiment [1] relates to primary cultures of tumours of patients with NSCLC. Put plainly: Primary cultures of NSCLC tumours, crystal violet quantification. The settings on record: primary NSCLC tumour cultures, 0-20 μM, 10 days. The experiment is classed as cell-based, human. The procedure:
Resected tissues from NSCLC patients were dissociated (Cell dissociation sieve-tissued grinder Kit CD1, SIGMA), and the obtained cells were seeded in 24 well plates (BD, Falcon, Bioscience, San Jose, Calif., USA). […] The final persistent population in each well was quantified by the method of Cristal Violet as previously described (Rodríguez-González, A. et al., Oncogene, 22:8803-8812). […]

For experiment [2], the system named is H460 cells. Put plainly: Cell proliferation assay (MTT). The experiment is classed as cell-based, human. The protocol: All cell lines used in this study were maintained under standard conditions of temperature (37° C.), humidity (95%), and carbon dioxide (5%). Human primary bronchial epithelial cells, NHBE (BEC) (Cambrex, CC-2541) were grown in BEGM (Bronchial Epithelial cell growth media) BulletKit (Cambrex, CC-3170). Human primary mammary epithelial cells, HMEC (Clonetics, CC-2551) were grown in MEBM medium supplemented with a bullet kit (Clonetics, CC-3150). Epithelial non-small lung cancer cells H460 and H1299, and small cell lung cancer cell lines H510 and H82 were maintained in RPMI supplemented with 10% Fetal Bovine Serum (FBS) (Life Technologies, Grand Island, N.Y.).
(§1) Cells were seeded on 96-well plates (BD, Falcon, Bioscience, San Jose, Calif., USA) at a density of 6000 cells/well, and incubated for 24 h under standard conditions. Then, cells were treated with different concentrations of the ChoK inhibitors (quadruplicates of each concentration) and maintained for 72 hours. […] Absorbance is read at 595 nm in a VersaMax Microplate Reader (Molecular Devices, Sunnyvale, Calif., USA). For sensitization with acid ceramidase inhibitor, cells were pre-treated […] with the correspondent IC50 for NOE before treatment with ChoK inhibitors. NOE (N-Oleoyl ethanolamine) was obtained from Calbiochem (La Jolla, Calif., USA).
Thus, disruption in the levels of acid ceramidase may allow ChoK inhibitors to have a better effect in these cells. To verify this hypothesis, we used the previously characterized acid ceramidase inhibitor, N-Oleoylethanolamine (NOE) (Grijalvo S., Chem Phys Lipids. 2006; 144:69-84), to investigate if the inhibition of acid ceramidase sensitizes tumour cell lines to ChoK inhibitors. To that end, H460 cells were pre-treated with NOE for three hours to inhibit acid ceramidase.
H460 cells were pre-treated with these compounds for three hours to inhibit ceramidases. […] Furthermore, the combined use of ChoK inhibitors and acid ceramidase inhibitors provides a further stronger anticancer activity.

In experiment [3] the test system is H460 MN58R cells. Put plainly: Cell proliferation assay (MTT). The experiment is classed as cell-based, human. The protocol:
(§2) Cell lines resistant to MN58b and RSM-932A (identified as MN58R and RSM-932A-R, respectively) were generated by prolonged continuous exposure to increasing concentrations of each drug. A parallel control (H460 stock) of the cell line in the absence of the compounds was kept in culture for the same time.
as §1
(§3) To further study the mechanism underlying resistance to ChoK inhibition, as well as the implication of acid ceramidase in this effect, we used the human NSCLC-derived H460 cell line for a set of in vitro experiments. Maintaining this cell line in culture for 9 months with slightly increasing doses cycles of MN58b and a second-generation ChoKα inhibitor, RSM-932A, we established new cell lines with acquired resistance to these ChoKα inhibitors. A control cell line (H460 stock) was also established maintaining H460 in culture for the same time without treatment. Thus, established cells resistant to MN58b (H460 MN58R) and resistant to RSM-932A (H460 RSM-932A-R) were not affected at concentrations where normal H460 cells or control H460stock cells were dramatically affected. […] Furthermore, we found a strong cross-resistance between both ChoK inhibitors as it could be expected due to the similar mechanisms of action of these two antitumoral drugs (Table 9).

Experiment [4] relates to H460 RSM-932AR cells. Put plainly: Cell proliferation assay (MTT). The experiment is classed as cell-based, human. The procedure:
as §2, §1, §3

Experiment [5] deals with H460stock cells. Put plainly: Cell proliferation assay (MTT). The experiment is classed as cell-based, human. The procedure: as §2, §1, §3
Experiment [6] relates to H460 xenografts. Put plainly: NSCLC xenografts, in vivo tumor growth inhibition. The protocol: Indicated cells were resuspended in DMEM just before inoculation (10^6 cells/0.1 ml), and injected subcutaneously in nu/nu immunosuppressed mice. Mice were kept under standard laboratory conditions according to the guidelines of the Spanish Government. When tumours reached a mean volume of 0.1 cm^3, mice were randomized to control and treated groups. Treatments with the antitumoral agents (and vehicle for control mice) were performed i.p. with following the indicated schedules. Tumors were monitored three times a week by measuring the major (D) and minor (d) diameters, and tumour volume was calculated by V=(D*d^2)/2. Statistical analysis of significant changes in tumour growth was calculated using SPSS software v. 13.0.

On to `N.N.[Cl][Pt][Cl]` [Cisplatin, cisplatin, reference compound], for which, in experiment [1], the “RESISTANT (% of samples)” value is given as 50%. Further, the “RESISTANT (number of samples)” value in experiment [1] amounted to 31. For the same compound, the “SENSITIVES (% of samples)” value in experiment [1] is 50%. The “SENSITIVES (number of samples)” value in experiment [1] was found to be 31. In addition, the “IC 50” value in experiment [2] came to 5 µg/mL; in experiment [3], 2 µg/mL; in experiment [4], 1.5 µg/mL; in experiment [5], 4.5 µg/mL. The “Statistical significance (p), tumour growth” value in experiment [6] (FIG. 7A, single agents) worked out at 0.3; in experiment [6] (FIG. 7B, combination given sequentially), 0.441.
